# Measured values: US12485110B2, “Use of ergothioneine for extending lifespan or improving healthspan” (NANJING NUTRABUILDING BIO-TECH CO., LTD., priority 2022, dated 2025)
# Entries after “also recorded” stand apart in the source; their conditions may differ.
# How the values were obtained:
# C. elegans [1] = assay: Lifespan assay (Automated Lifespan Machine); format: in vivo
# Description: N2 (Bristol) wild type strain has been used in this application.
# To prevent chemical modification or metabolism of the test article by the food bacteria, worms were fed on a lawn of UV-killed bacteria (UV-i bacteria). An overnight culture of E. coli strain WP-2 was pelleted, washed, filtered, and irradiated. A suspension of UV-i bacteria was spotted on NGM agar containing Streptomycin to inhibit the growth of contaminating bacteria. The quantity and distribution of food bacteria were calibrated to ensure adequate access to food for the duration of assay while maintaining visibility of the worms.
# The ALM used herein is based on the Caenorhabditis elegans lifespan machine published by Stroustrup et. al (Stroustrup, N. et al. The Caenorhabditis elegans Lifespan Machine. Nat Methods 10, 665-670 (2013)), with proprietary modifications to improve temperature stability and image acquisition. The scanner unit consists of a modified EPSON V850 and images are processed and analyzed using the ALM software (see id.). The machine time-of-death calls are trained and validated using the “storyboarding” feature of the ALM software.
# The lifespan assay was designed and performed according to published and validated methods (Amrit, F. R. G., Ratnappan, R., Keith, S. A. & Ghazi, A. The C. elegans lifespan assay toolkit. Methods 68, 465-475 (2014)), using a modified version of the Automated Lifespan Machine (Stroustrup, N. et al. The Caenorhabditis elegans Lifespan Machine. Nat Methods 10, 665-670 (2013)). Worms were age synchronized by bleaching and eggs were plated directly onto NGM agar seeded with UV-i bacteria (Day 1, hatch). On Day 3, when the worms had reached the late L4 stage, they were transferred to dishes containing 100 μM 5-Fluorodeoxyuridine (FUdR) to suppress progeny. On day 5, the worms were washed off the dishes, and 30-50 worms were plated on each scanner dish. Plates were immobilized inverted on the bed of an Automated Lifespan Machine which scanned two images per hour of the plates continuously for the next 40 days.
# Time of death calls exported from the ALM software was analyzed and plotted using the Lifelines software package developed by Cam Davidson-Pilon et. al (Lifelines Version: v0.25.9). Additional analysis performed using the OASIS2 analysis software (Seong Kyu Han et. al. OASIS 2: online application for survival analysis 2 with features for the analysis of maximal lifespan and healthspan in aging research. Oncotarget. 7:56147-56152. (2016)).
# The lifespan assay was initiated by expanding all replicate groups to more than 1000 worms, then synchronizing by bleaching and allowing larval worms to hatch and arrest. To eliminate the effect of bacterial metabolism and growth on lifespan of C. elegans (wild type, and not over express β-amyloid peptide) worms, synchronized worms were only exposed to dead food bacteria. To suppress progeny, worms were transferred to media containing 5-Fluorodeoxyuridine (FUdR) within 54-60 hours post-plating. Worms were inspected 24 and 48 hours after this transfer to confirm infertility. Finally, the worms were inspected for general health and morphology before transferring to scanner plates. The scanner plates were incubated for an additional 2 days and inspected again before loading onto scanners.
# To obtain high-resolution lifespan data and eliminate confounding factors such as worm handling and operator bias, lifespan data was collected using an Automated Lifespan Machine (ALM) (Stroustrup, N. et al. The Caenorhabditis elegans Lifespan Machine. Nat Methods 10, 665-670 (2013)). Three biological replicates, derived from synchronizing three independently maintained lines of N2 worms, were distributed across instruments. Images of the worms were then collected for the next 35 days with no interruption or manipulations. Some plates were excluded after quality checks, but plate number and worm count for all replicates exceeded the threshold for statistical significance (Table 1, row 1).
# C. elegans [2] = assay: Movement and healthspan analysis (worm activity, morphology, circularity); format: in vivo; details: 0.1 mM
# Description: Worm movement was tracked from the images acquired by the ALM during the lifespan assay. Worm size and movement features were extracted and analyzed using custom software.
# To measure healthspan, active worms were identified using the ALM scanner images from the lifespan assay (see Example 2). The worms' spatial location on the plate and their morphology were quantified throughout their lifespan to assess healthspan.
# Worm Activity serves as a proxy for animal health. Changes in spatial distribution of the worms between time points is used to derive aggregate movement for the population over time. Worm Activity is described by two complementary measurements of aggregate movement, Centroid Distance and Spatial Distribution: • Centroid Distance calculates a geometric center for each individual worm, and then measures the minimum collective distance that a group of worms moved between time points. It achieves measurement of the changes in spatial distribution between time-points. • Spatial Distribution uses changes in worm contours between time points to measure the changes in the spatial distribution of the worms' bodies. The normalized distribution of these distances in the population provides a measure of how much the group of worms altered their positions and posture on the plate between two time-points.
# For both of these Activity metrics, a plot with higher numbers indicates good health, and all measures are normalized to fall between 0 and 1.
# Worm morphology is measured from the worm contours detected in the images. In the process of aging, worms become shorter and stouter over time and their shape is an indicator of their overall health and biological age. The Length is calculated from the central spline fitted to the worm contour and Width is measured from each worm's widest point. The worms' posture also changes with age as they lose the ability to maintain an elongated position. Average Circularity measures how close the shape and posture come to being enclosed by a circle.
# Each of these measures are obtained by averaging data for all active worms detected on a plate, then averaging across different replicate plates of the same condition. All measurements are based on worms that are still alive and moving at the time of quantification. All measures start when worms are placed on the scanner at day 3 of adulthood.
# Average Circularity. The Average Circularity Assay indicates worm heath by describing how closely the shape and posture of the worms is enclosed within a circle. Healthy, active worms maintain an elongated, albeit sinusoidal posture. As unhealthy and aged worms lose muscle function, they increasingly adopt a curled, bunched, or folded state in addition to a stout and wrinkled morphology.
smiles,measurement,setting,value
"Oc1ccc(C=Cc2cc(O)cc(O)c2)cc1 [Resveratrol, reference compound]",Age in days at 25% mortality,C. elegans [1]; 0.1 mM,21.46 days
same,Age in days at 50% mortality,C. elegans [1]; 0.1 mM,27.29 days
same,Age in days at 75% mortality,C. elegans [1]; 0.1 mM,31.13 days
same,Age in days at 90% mortality,C. elegans [1]; 0.1 mM,35.89 days
same,Age in days at 100% mortality,C. elegans [1]; 0.1 mM,40.85 days
same,Lifespan / survival relative to vehicle control (in words),C. elegans [1]; 0.1 mM positive control,significant positive increase in lifespan; also recorded: higher survival than the vehicle control at all timepoints
same,Maximum lifespan,"C. elegans [1]; 0.1 mM, 95th percentile of lifespans",37.3 days
same,Median lifespan,"C. elegans [1]; 0.1 mM, N2 wild type, day 0 = day 1 of adulthood",27.3 days
same,Mean lifespan,"C. elegans [1]; 0.1 mM, area under survival curve",26.3 days
same,Average circularity / posture (FIG. 7),C. elegans [2]; late life,maintained a more elongated posture well into late life
same,"Aggregate movement (Centroid Distance and Spatial Distribution, FIGS. 5A-5B)",C. elegans [2]; over the duration of lifespan,more vigorous movement
same,"Worm morphology (size, FIGS. 6A-6C)",C. elegans [2]; over the lifespan,slightly smaller earlier in the assay but remained larger in the late life stages
